Measured values from patent US20220370416A1, “COMPOUNDS AND METHODS FOR TARGETED DEGRADATION OF KRAS” (Arvinas Operations, Inc., priority 2020, published 2022).

Columns and labels:
HiBit-KRAS^G12C [1] = biological target: T1, HiBit-KRAS^G12C (Homo sapiens, UniProt P01116, G12C); assay: HiBit degradation assay in MiaPaCa-2 HiBit-KRas^G12C cells; type: cell-based; settings: 24 hours; for DC50: MiaPaCa-2 HiBit-KRas^G12C cells; for Dmax: MIA PaCa-2, MiaPaCa-2 HiBit-KRas^G12C cells, maximum degradation, read-out: KRas^G12C-HiBiT (MiaPaCa; 0.5% DMSO) DMax
Summary of the method: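 DC50 and Dmax come from 4-parameter fits of DMSO-normalized HiBit luminescence after 24 hours' exposure at 37° C to 10 μM–20 nM compound in 0.1% or 0.5% DMSO. Cells: MiaPaCa-2 carrying one endogenously HiBit-tagged KRAS^G12C allele; concentrations causing ≥50% […] viability loss (alamar blue) excluded.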

HiBit-KRAS^G12C [2] = biological target: T1, HiBit-KRAS^G12C; assay: HiBit degradation assay in SW1573 HiBit-KRas^G12C cells; type: cell-based; design: expressed in transfected cells; host or cells: SW1573 (clone E6), modified pcDNA3.1 vector, TK promoter; settings: 24 hours
Summary of the method: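 HiBit-KRAS G12C degradation was measured after a 24 h compound exposure (titrated 10 μM–20 nM) in engineered SW1573 cells. Lytic HiBit luminescence, expressed relative to DMSO controls, yielded DC50 and Dmax from 4-parameter fits. Concentrations causing ≥50% loss in alamar blue viability were omitted as cytotoxic.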

[3] = read-out: KRas^G12C-HiBiT (MiaPaCa; 0.5% DMSO) IC50, 0.5% DMSO
[4] = SW1573, SW1573 HiBit-KRas^G12C, 0.5% DMSO, read-out: KRas^G12C-HiBiT (SW1573; 0.5% DMSO) Dmax**
[5] = read-out: KRas^G12C-HiBiT (SW1573; 0.5% DMSO) IC50***, SW1573 HiBit-KRas^G12C, 0.5% DMSO

T1 sequence (P01116 1-186 isoform P01116-2 G12C limits assumed): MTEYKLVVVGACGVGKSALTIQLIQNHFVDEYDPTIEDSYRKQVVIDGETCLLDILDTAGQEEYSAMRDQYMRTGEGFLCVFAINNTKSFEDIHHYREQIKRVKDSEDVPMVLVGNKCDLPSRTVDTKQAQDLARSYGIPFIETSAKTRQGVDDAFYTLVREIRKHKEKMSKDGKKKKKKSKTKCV

SMILES	DC50 (HiBit-KRAS^G12C [1]; read-out: KRas^G12C-HiBiT (MiaPaCa; 0.1% DMSO) IC50, 0.1% DMSO)	Dmax (HiBit-KRAS^G12C [2]; SW1573, read-out: KRas^G12C-HiBit (SW1573; 0.1% DMSO) Dmax**, SW1573 HiBit-KRas^G12C, 0.1% DMSO)	DC50 (HiBit-KRAS^G12C [2]; SW1573 HiBit-KRas^G12C, 0.1% DMSO, read-out: KRas^G12C-HIBit (SW1573; 0.1% DMSO) DC50*)	Dmax (HiBit-KRAS^G12C [1]; 0.5% DMSO)	DC50 (HiBit-KRAS^G12C [1]; [3])	Dmax (HiBit-KRAS^G12C [2]; [4])	DC50 (HiBit-KRAS^G12C [2]; [5])
C=CC(=O)N1CCN(c2nc(O[C@H](C)CN3CCC(OCCOC4CN(CC(=O)N[C@H](C(=O)N5C[C@H](O)C[C@H]5C(=O)N[C@@H](C)c5ccc(-c6scnc6C)cc5)C(C)(C)C)C4)CC3)nc3c(F)c(-c4cc(O)cc5ccccc45)c(Cl)cc23)CC1 [Compound 53, (2S,4R)-1-[(2S)-2-(2-{3-[2-({1-[(2R)-2-{[6-chloro-8-fluoro-7-(3-hydroxynaphthalen-1-yl)-4-[4-(prop-2-enoyl)piperazin-1-yl]quinazolin-2-yl]oxy}propyl]piperidin-4-yl}oxy)ethoxy]azetidin-1-yl}acetamido)-3,3-dimethylbutanoyl]-4-hydroxy-N-[(1S)-1-[4-(4-methyl-1,3-thiazol-5-yl)phenyl]ethyl]pyrrolidine-2-carboxamide]	> 1000 nM	< 35%	100 to 1000 nM				
C=CC(=O)N1CCN(c2nc(OCCN3CCC(COCC(=O)N[C@H](C(=O)N4C[C@H](O)C[C@H]4C(=O)N[C@@H](C)c4ccc(-c5scnc5C)cc4)C(C)(C)C)CC3)nc3c(F)c(-c4cc(O)cc(C)c4C)c(Cl)cc23)C[C@@H]1CC#N [Compound 102, (2S,4R)-1-[(2S)-2-[2-({1-[2-({6-chloro-4-[(3S)-3-(cyanomethyl)-4-(prop-2-enoyl)piperazin-1-yl]-8-fluoro-7-(5-hydroxy-2,3-dimethylphenyl)quinazolin-2-yl}oxy)ethyl]piperidin-4-yl}methoxy)acetamido]-3,3-dimethylbutanoyl]-4-hydroxy-N-[(1S)-1-[4-(4-methyl-1,3-thiazol-5-yl)phenyl]ethyl]pyrrolidine-2-carboxamide]				> 70%	100 to 1000 nM	> 70%	100 to 1000 nM
C=CC(=O)N1CCN(c2nc(OCCN3CCC(COCC(=O)N[C@H](C(=O)N4C[C@H](O)C[C@H]4C(=O)N[C@@H](C)c4ccc(-c5ccnn5C)cc4)C(C)(C)C)CC3)nc3c(F)c(-c4cc(O)cc5ccccc45)c(Cl)cc23)C[C@@H]1CC#N (atropisomer, axis not shown) [Compound 136, (2S,4R)-1-[(2S)-2-[2-({1-[2-({6-chloro-4-[(3S)-3-(cyanomethyl)-4-(prop-2-enoyl)piperazin-1-yl]-8-fluoro-7-(3-hydroxynaphthalen-1-yl)quinazolin-2-yl}oxy)ethyl]piperidin-4-yl}methoxy)acetamido]-3,3-dimethylbutanoyl]-4-hydroxy-N-[(1S)-1-[4-(1-methyl-1H-pyrazol-5-yl)phenyl]ethyl]pyrrolidine-2-carboxamide]				> 70%	100 to 1000 nM	> 70%	100 to 1000 nM
C=CC(=O)N1CCN(c2nc(OCCN3CCC(COCC(=O)N[C@H](C(=O)N4C[C@H](O)C[C@H]4C(=O)N[C@@H](C)c4ccc(-c5scnc5C)cc4)C(C)(C)C)CC3)nc3c(F)c(-c4nc(N)cc(C)c4C(F)(F)F)c(Cl)cc23)C[C@@H]1CC#N [Compound 115, (2S,4R)-1-[(2S)-2-[2-({1-[2-({7-[6-amino-4-methyl-3-(trifluoromethyl)pyridin-2-yl]-6-chloro-4-[(3S)-3-(cyanomethyl)-4-(prop-2-enoyl)piperazin-1-yl]-8-fluoroquinazolin-2-yl}oxy)ethyl]piperidin-4-yl}methoxy)acetamido]-3,3-dimethylbutanoyl]-4-hydroxy-N-[(1S)-1-[4-(4-methyl-1,3-thiazol-5-yl)phenyl]ethyl]pyrrolidine-2-carboxamide]				> 70%	100 to 1000 nM	> 70%	100 to 1000 nM
